Laboratory results from patent US9302999B2, “Substituted triazoles as herbicides” (E. I. DU PONT DE NEMOURS AND COMPANY, priority 2012, dated 2016).

How the values were obtained:
Assay type in all cases: in vivo
[1] = test system: barnyardgrass (Echinochloa crus-galli); experiment: Test C flooded paddy test: barnyardgrass; conditions: scale 0 to 100 (0 no effect, 100 complete control)
Outline: (§1)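 2-leaf stage plants; pots flooded 3 cm above soil; compound applied into paddy water, depth maintained. Greenhouse 13–15 d. Visual rating vs controls, 0–100 (0 = no effect, 100 = complete control); dash = no result.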

[2] = test system: foxtail, giant (giant foxtail, Setaria faberii); experiment: Test A pre-/postemergence: foxtail, giant
Outline: (§2)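 Rating scale 0–100 (100 = complete control), visual, ~10 days after application in the greenhouse. Applications: preemergence directed soil spray; postemergence at 1–2 leaves.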

[3] = test system: pigweed (Amaranthus retroflexus); experiment: Test A pre-/postemergence: pigweed
Outline: as §2

[4] = test system: crabgrass, large (large crabgrass, Digitaria sanguinalis); experiment: Test A pre-/postemergence: crabgrass, large
Outline: as §2

rice (Oryza sativa) = experiment: Test C flooded paddy test: rice; conditions: scale 0 to 100 (0 no effect, 100 complete control)
Outline: as §1

[5] = test system: barnyardgrass (Echinochloa crus-galli); experiment: Test A pre-/postemergence: barnyardgrass
Outline: as §2

[6] = test system: ducksalad (Heteranthera limosa); experiment: Test C flooded paddy test: ducksalad; conditions: scale 0 to 100 (0 no effect, 100 complete control)
Outline: as §1

[7] = test system: velvetleaf (Abutilon theophrasti); experiment: Test A pre-/postemergence: velvetleaf
Outline: as §2

[8] = test system: sedge, umbrella (small-flower umbrella sedge, Cyperus difformis); experiment: Test C flooded paddy test: sedge, umbrella; conditions: scale 0 to 100 (0 no effect, 100 complete control)
Outline: as §1

[9] = test system: morningglory (Ipomoea spp.); experiment: Test A pre-/postemergence: morningglory
Outline: as §2

[10] = test system: wheat (Triticum aestivum); experiment: Test A pre-/postemergence: wheat
Outline: as §2

corn (Zea mays) = experiment: Test A pre-/postemergence: corn
Outline: as §2

[11] = Flood (flooded paddy test), 125 g ai/ha, visual rating after 13 to 15 days
[12] = Flood (flooded paddy test), 250 g ai/ha, visual rating after 13 to 15 days
[13] = Postemergence, 125 g ai/ha, 0 to 100 scale, 0 is no effect, 100 is complete control
[14] = Postemergence, 500 g ai/ha, visual rating on 0 to 100 scale (0 no effect, 100 complete control), approximately ten days
[15] = Preemergence, 125 g ai/ha, 0 to 100 scale where 0 is no effect and 100 is complete control
[16] = Preemergence, 500 g ai/ha, 0 to 100 scale, 0 is no effect, 100 is complete control
[17] = Postemergence, 1000 g ai/ha, visual rating on 0 to 100 scale (0 no effect, 100 complete control), approximately ten days
[18] = Preemergence, 1000 g ai/ha, 0 to 100 scale, 0 is no effect, 100 is complete control

**Q.** For `Cc1nn(-c2ccc(C(F)(F)F)cc2)nc1Oc1cccc(C(F)(F)F)c1` [Compound 111], which “Plant response rating, Barnyardgrass” value [1, 11] is on record?
**A.** Its value is 20.

**Q.** What about the “Plant response rating, Barnyardgrass” value [1, 12] of the same molecule?
**A.** The value was 35.

**Q.** What about the “Plant response rating, Barnyardgrass” value ([1]; Flood, 31 g ai/ha) of the same molecule?
**A.** Its value is 0.

**Q.** What about the “Plant response rating, Barnyardgrass” value ([1]; Flood, 62 g ai/ha) of the same molecule?
**A.** Its value is 0.

**Q.** What about the “Foxtail, Giant plant response rating” value [2, 13] of the same molecule?
**A.** Its value is 80.

**Q.** What about the “Foxtail, Giant plant response rating” value [2, 14] of the same molecule?
**A.** The value was 90.

**Q.** And the “Plant response rating, Foxtail, Giant” value [2, 15]?
**A.** The value was 70.

**Q.** And the “Plant response rating, Foxtail, Giant” value [2, 16]?
**A.** The value was 100.

**Q.** And the “Pigweed plant response rating” value [3, 13]?
**A.** Its value is 90.

**Q.** And the “Pigweed plant response rating” value [3, 14]?
**A.** The value was 90.

**Q.** And the “Plant response rating, Pigweed” value [3, 15]?
**A.** The value was 70.

**Q.** What about the “Plant response rating, Pigweed” value [3, 16] of the same molecule?
**A.** The value was 90.

**Q.** What about the “Crabgrass, Large plant response rating” value [4, 13] of the same molecule?
**A.** The value was 90.

**Q.** What about the “Crabgrass, Large plant response rating” value [4, 14] of the same molecule?
**A.** Its value is 90.

**Q.** What about the “Plant response rating, Crabgrass, Large” value [4, 15] of the same molecule?
**A.** The value was 80.

**Q.** What about the “Plant response rating, Crabgrass, Large” value [4, 16] of the same molecule?
**A.** Its value is 100.

**Q.** What about the “Plant response rating, Rice” value (rice (Oryza sativa); [11]) of the same molecule?
**A.** The value was 25.

**Q.** What about the “Plant response rating, Rice” value (rice (Oryza sativa); [12]) of the same molecule?
**A.** Its value is 30.

**Q.** What about the “Plant response rating, Rice” value (rice (Oryza sativa); Flood, 31 g ai/ha) of the same molecule?
**A.** Its value is 0.

**Q.** What about the “Plant response rating, Rice” value (rice (Oryza sativa); Flood, 62 g ai/ha) of the same molecule?
**A.** The value was 0.

**Q.** What about the “Barnyardgrass plant response rating” value [5, 13] of the same molecule?
**A.** Its value is 20.

**Q.** What about the “Barnyardgrass plant response rating” value [5, 14] of the same molecule?
**A.** The value was 30.

**Q.** What about the “Plant response rating, Barnyardgrass” value [5, 15] of the same molecule?
**A.** The value was 20.

**Q.** And the “Plant response rating, Barnyardgrass” value [5, 16]?
**A.** The value was 80.

**Q.** What about the “Plant response rating, Ducksalad” value [6, 11] of the same molecule?
**A.** Its value is 70.

**Q.** And the “Plant response rating, Ducksalad” value [6, 12]?
**A.** The value was 80.

**Q.** What about the “Plant response rating, Ducksalad” value ([6]; Flood, 31 g ai/ha) of the same molecule?
**A.** The value was 0.

**Q.** What about the “Plant response rating, Ducksalad” value ([6]; Flood, 62 g ai/ha) of the same molecule?
**A.** Its value is 30.

**Q.** And the “Velvetleaf plant response rating” value [7, 13]?
**A.** The value was 20.

**Q.** What about the “Velvetleaf plant response rating” value [7, 14] of the same molecule?
**A.** Its value is 70.

**Q.** What about the “Plant response rating, Velvetleaf” value [7, 15] of the same molecule?
**A.** The value was 0.

**Q.** And the “Plant response rating, Velvetleaf” value [7, 16]?
**A.** Its value is 50.

**Q.** What about the “Plant response rating, Sedge, Umbrella” value [8, 11] of the same molecule?
**A.** Its value is 80.

**Q.** What about the “Plant response rating, Sedge, Umbrella” value [8, 12] of the same molecule?
**A.** The value was 85.

**Q.** What about the “Plant response rating, Sedge, Umbrella” value ([8]; Flood, 31 g ai/ha) of the same molecule?
**A.** The value was 45.

**Q.** And the “Plant response rating, Sedge, Umbrella” value ([8]; Flood, 62 g ai/ha)?
**A.** Its value is 65.

**Q.** What about the “Morningglory plant response rating” value [9, 13] of the same molecule?
**A.** The value was 70.

**Q.** And the “Morningglory plant response rating” value [9, 14]?
**A.** Its value is 100.

**Q.** And the “Plant response rating, Morningglory” value [9, 15]?
**A.** The value was 0.

**Q.** And the “Plant response rating, Morningglory” value [9, 16]?
**A.** The value was 30.

**Q.** And the “Wheat plant response rating” value [10, 13]?
**A.** The value was 10.

**Q.** And the “Wheat plant response rating” value [10, 14]?
**A.** The value was 40.

**Q.** What about the “Plant response rating, Wheat” value [10, 15] of the same molecule?
**A.** The value was 0.

**Q.** What about the “Plant response rating, Wheat” value [10, 16] of the same molecule?
**A.** Its value is 0.

**Q.** What about the “Corn plant response rating” value (corn (Zea mays); [13]) of the same molecule?
**A.** The value was 20.

**Q.** And the “Corn plant response rating” value (corn (Zea mays); [14])?
**A.** The value was 30.

**Q.** What about the “Plant response rating, Corn” value (corn (Zea mays); [15]) of the same molecule?
**A.** Its value is 0.

**Q.** What about the “Plant response rating, Corn” value (corn (Zea mays); [16]) of the same molecule?
**A.** Its value is 20.

**Q.** What does the source list for `Cc1nn(-c2ccc(C(F)(F)F)cc2)nc1Cn1ccc(C(F)(F)F)n1` [Compound 117]?
**A.** Plant response rating, Barnyardgrass [1, 11]: 65; Plant response rating, Barnyardgrass [1, 12]: 80; Plant response rating, Barnyardgrass ([1]; Flood, 31 g ai/ha): 50; Plant response rating, Barnyardgrass ([1]; Flood, 62 g ai/ha): 60; Foxtail, Giant plant response rating [2, 17]: 90; Foxtail, Giant plant response rating [2, 18]: 100; Pigweed plant response rating [3, 17]: 100; Pigweed plant response rating [3, 18]: 100; Crabgrass, Large plant response rating [4, 17]: 90; Crabgrass, Large plant response rating [4, 18]: 100; Plant response rating, Rice (rice (Oryza sativa); [11]): 25; Plant response rating, Rice (rice (Oryza sativa); [12]): 40; Plant response rating, Rice (rice (Oryza sativa); Flood, 31 g ai/ha): 15; Plant response rating, Rice (rice (Oryza sativa); Flood, 62 g ai/ha): 15; Barnyardgrass plant response rating [5, 17]: 80; Barnyardgrass plant response rating [5, 18]: 100; Plant response rating, Ducksalad [6, 11]: 80; Plant response rating, Ducksalad [6, 12]: 85; Plant response rating, Ducksalad ([6]; Flood, 31 g ai/ha): 30; Plant response rating, Ducksalad ([6]; Flood, 62 g ai/ha): 50; Velvetleaf plant response rating [7, 17]: 100; Velvetleaf plant response rating [7, 18]: 30; Plant response rating, Sedge, Umbrella [8, 11]: 75; Plant response rating, Sedge, Umbrella [8, 12]: 85; Plant response rating, Sedge, Umbrella ([8]; Flood, 31 g ai/ha): 65; Plant response rating, Sedge, Umbrella ([8]; Flood, 62 g ai/ha): 70; Morningglory plant response rating [9, 17]: 90; Morningglory plant response rating [9, 18]: 40; Wheat plant response rating [10, 17]: 20; Wheat plant response rating [10, 18]: 10; Corn plant response rating (corn (Zea mays); [17]): 40; Corn plant response rating (corn (Zea mays); [18]): 50
